Results reported in paper PMC5626019 (Nature, 2017).
No end group written: not given here.

Tests used:
[1] = molecular target: purified HLA A*11:01 molecules (Homo sapiens, UniProt P04439, A114D/D185E/E176A/F33Y/L180Q/S129P/T187R); experiment: HLA class I competition binding assay; details: for binding, in words: purified HLA A*11:01 in vitro
[2] = system: PBMC; experiment: IFNγ and IL-5 dual ELISPOT after 14 days culture; format: cell-based, human
[3] = system: DQB1*05:01; details: competition binding to purified MHC
[4] = system: DQB1*04:02; details: competition binding to purified MHC
[5] = system: 26 common HLA class II alleles; experiment: HLA class II competition binding, panel of common alleles; parameters: species or system human

GVLYVGSKTK
binding, in words [1]: bound poorly

VLYVGSKTKK
binding, in words [1]: bound poorly

GKTKEGVLYVGSKTK
T cell response, in words ([2]; PBMC stimulated 14 days, peptides 5 μg/ml): apparent Class II restricted IL-5 and IFNγ response

VLYVGSKTK
IC50 [1]: 161 nM

DNEAYEMPSEEGYQD
binding, in words [3]: strongly bound

EMPSEEGYQDYEPEA
binding, in words [3]: low affinity | binding, in words [4]: low affinity

phosphorylated aaS129 aa116MPVDPDNEAYEMPSEaa130: phosphorylated aaS129 epitope
IL-5 responses in PD compared with HC ([2]; p=0.02, Fisher's exact test, 300 SFC threshold): markedly higher

MPVDPDNEAYEMPSE
binding, in words [5]: bound several alleles with lower affinity
